Values of other authors, collected in US20090041835A1, “METHOD OF INHIBITING LEAKAGE OF DRUG ENCAPSULATED IN LIPOSOMES” (KYOWA HAKKO KOGYO CO., LTD., priority 1999, published 2009).

Conditions: LUVs of 190 nm average particle size, pH gradient using ammonium sulfate; 50% mouse serum at 37° C.

## O=C(O)c1cn(C2CC2)c2cc(N3CCNCC3)c(F)cc2c1=O [ciprofloxacin]
  leakage of drug out of the LUVs: rapidly leaked out
